Source: EP0689839A2, “Use of inhibitors of adenosine triphosphatase for the manufacture of a medicament for the treatment of disorders anociated with beta-amyloid peptide” (ELI LILLY AND COMPANY, priority 1994, dated 1996)
“And” between values parts separate entries of the source, which are not always exact repeats. Equal entries are not always repeated.

What was measured:
β-amyloid peptide [1] = assay: β-amyloid peptide production in human fetal primary cortical cultures (ELISA); assay type: cell-based; settings: 1 µM; twenty four hour-conditioned medium; endogenous amyloid precursor protein
Procedure: In order to better understand this phenomenon, human fetal primary cortical cultures, which secrete β-amyloid peptide as a result of endogenous amyloid precursor protein processing, were treated with 1 µM bafilomycin. Twenty four hour-conditioned medium was collected and evaluated using enzyme-linked immunosorbent assay (ELISA).

[2] = test system: human fetal primary cortical cultures; assay: Cytotoxicity in human fetal primary cortical cultures; assay type: cell-based; settings: 1 µM
β-amyloid peptide [3] = assay: β-Amyloid Peptide Production Inhibition (Cellular Assay), ELISA of conditioned media; assay type: cell-based; settings: normalized for cytotoxicity (MTT)
Procedure: (§1) Two cell lines (human kidney cell line 293 and Chinese hamster ovary cell line CHO) were stably transfected with the gene for APP751 containing the double mutation Lys₆₅₁-Met₆₅₂ to Asn₆₅₁-Leu₆₅₂ (APP-751 numbering) commonly called the Swedish mutation using the method described in Citron, et al., Nature (London), 360:672-674 (1992). The transfected cell lines were designated as 293 751 SWE and CHO 751 SWE, and were plated in Corning 96 well plates at 2.5 x 10⁴ or 1 x 10⁴ cells per well respectively in Dulbecco's […] essential media (DMEM) plus 10% fetal bovine serum. Following overnight incubation at 37°C in an incubator equilibrated with 10% carbon dioxide (CO₂) and humidified air, the media were removed and replaced with 200 µl per well of media containing a macrolide. After a two hour pretreatment period, the media were again removed and replaced with fresh media containing the test compound and the cells were incubated for an additional two hours.
After treatment, plates were centrifuged at 1200 x g for five minutes at room temperature to pellet cellular debris from the conditioned media. From each well, 100 µl of conditioned media were transferred into an ELISA plate precoated with antibody 266 against βamyloid peptide(13-28) (Seubert et al., supra.) and stored at 4°C overnight. An ELISA assay employing labelled antibody 6C6 (against β-amyloid peptide-1-16) was run the next day to measure the amount of β-amyloid peptide produced.
The results of the β-amyloid peptide ELISA were fit to a standard curve and expressed as ng/ml β-amyloid peptide. In order to normalize for cytotoxicity, these β-amyloid peptide results were divided by the MTT results and expressed as a percentage of the results from a drug-free control.

[4] = test system: 293 751 SWE and CHO 751 SWE; assay: Cytotoxic effects / cellular viability by MTT in the cellular assay; assay type: cell-based
Procedure: as §1
Cytotoxic effects of the compounds were measured by a modification of the method of Hansen, et al., Journal of Immununological Methods, 119:203-210 (1989). […] The difference in the OD562nm and the OD650nm was measured in a UVmax microplate reader as an indicator of the cellular viability.

vacuolar ATPases = settings: relative to other bafilomycins; cited from earlier work
[5] = 1 µg/ml, read-out: Percent Inhibition

With `CO/C1=C\C(C)=C\[C@@H](C)[C@@H](O)[C@@H](C)C/C(C)=C/C=C/[C@H](OC)[C@@H]([C@@H](C)[C@@H](O)[C@H](C)[C@@]2(O)C[C@@H](O)[C@H](C)[C@@H](C(C)C)O2)OC1=O` [bafilomycin] the “inhibition of β-amyloid peptide production” value (β-amyloid peptide [1]) was “Greater than 75%” and the cytotoxicity [2] was “no cytotoxicity was observed”.
Molecule `CO/C1=C\C(C)=C\C(C)C(O)C(C)C/C(C)=C/C=C/C(OC)C(C(C)C(O)C(C)C(=O)/C=C/C(C)C(O)C(C)C)OC1=O` (stereo not shown) [Bafilomycin D, bafilomycin D] has an inhibition at 1 µg/mL (β-amyloid peptide [3]; [5]) of 4 ± 3%.
In the case of Bafilomycin B₁, the “Percent Inhibition” value (β-amyloid peptide [3]; 1 µg/ml) is reported as 87 ± 1%.
With `CO/C1=C\C(C)=C\C(C)C(O)C(C)C/C(C)=C/C=C/C(OC)C(C(C)C(O)C(C)C2(O)CC(OC(=O)/C=C/C(=O)O)C(C)C(C(C)C)O2)OC1=O` (stereo not shown) [Bafilomycin C₁] the inhibition at 1 µg/mL (β-amyloid peptide [3]; [5]) was 90 ± 2%.
With elaiophyline the “Percent Inhibition” value (β-amyloid peptide [3]; 0.6 µM) was 98 ± 2%, the “Percent Inhibition” value (β-amyloid peptide [3]; 1.2 µM) was 100 ± 1% and the “Percent Inhibition” value (β-amyloid peptide [3]; 2.4 µM) was 100 ± 2%. The “Percent Inhibition” value (β-amyloid peptide [3]; 4.9 µM) was 100 ± 1% and the “Percent Inhibition” value (β-amyloid peptide [3]; 9.8 µM) was 100 ± 1% and 131 ± 1%.
With `C/C=C/[C@H]1O[C@@](O)([C@@H](C)[C@H](O)[C@H](C)[C@H]2OC(=O)/C(OC)=C/C(C)=C/[C@@H](C)[C@@H](O)[C@@H](CC)[C@@H](O)[C@H](C)C/C(C)=C/C=C/[C@@H]2OC)C[C@@H](O[C@H]2C[C@@H](O)[C@H](OC(N)=O)[C@@H](C)O2)[C@@H]1C` [Concanamycin A, concanamycin A] the “Percent Inhibition” value (β-amyloid peptide [3]; 1.2 µM) was 74 ± 4% and the “Percent Viability” value ([4]; 1.2 µM) was 97%.
In the case of bafilomycin A₁, the “Percent Viability” value ([4]; 0.3 µM) is reported as 112% and 99% and 102%.
In the case of `CO/C1=C\C(C)=C\C(C)C(O)C(C)C/C(C)=C/C=C/C(OC)C(C(C)C(O)C(C)C2(O)CC(O)C(C)C(C(C)C)O2)OC1=O` (stereo not shown) [Bafilomycin A₁, bafilomycin A₁], the “Percent Inhibition” value (β-amyloid peptide [3]; 0.3 µM) is reported as 91 ± 1% and 92 ± 1% and the inhibition at 0.3 µM (β-amyloid peptide [3]; 0.3 µM, read-out: Percent Inhibition) is reported as 90 ± 2%.
In the case of bafilomycin D, the “poorer inhibitor of vacuolar ATPases than other bafilomycins, especially bafilomycin A1” value (vacuolar ATPases) is listed as roughly 40 fold.
